# Where a name gives a salt, the structure may show the parent alone.
# Legend:
# [1] = test system: recurrent pancreatic cancer (pancreatic body cancer) (Stage IVa); assay: Example 2: case of recurrent pancreatic cancer (pancreatic body cancer); format: in vivo, human
# Excerpt: Patient with recurrent pancreatic cancer (pancreatic body cancer) (Stage IVa)
# The patient also had diabetes.
# [2] = test system: colorectal cancer cells having a mutation in KRAS gene and BRAF gene; conditions: contact with high-concentration vitamin C; cited from earlier work
# human lung cancer cells = conditions: pHi of human lung cancer cells rises from 7.0 to 7.4; cited from earlier work
# pancreatic cancer = conditions: diabetic patients taking metformin versus those taking no metformin; cited from earlier work
smiles,measurement,setting,value
"Nc1ccn([C@@H]2O[C@H](CO)[C@@H](O)C2(F)F)c(=O)n1 [Gemzar, gemcitabine]",level of tumor marker (CA19-9),"[1]; Gemzar 800 mg/m^2 every other week alone (Oct-Dec 2016), combination from mid February 2017 (NaHCO3 3 g/day, vitamin C 25 g/day once a week, metformin hydrochloride 250 mg/day)",significantly increased
same,MRI inspection,"[1]; middle of December 2016, Gemzar 800 mg/m^2 every other week alone",suspected to have peritoneal dissemination
"O=C1O[C@H]([C@@H](O)CO)C(O)=C1O [vitamin C, L-ascorbic acid]",effect on the cells,[2],killed
COc1cccc2c1C(=O)c1c(O)c3c(c(O)c1C2=O)C[C@@](O)(C(=O)CO)C[C@@H]3O[C@H]1C[C@H](N)[C@H](O)[C@H](C)O1 [doxorubicin hydrochloride],increase of resistance to the anti-cancer agent,human lung cancer cells,"2,000 times"
CN(C)C(=N)NC(=N)N [metformin],reduction of risk of development of pancreatic cancer,pancreatic cancer,62%

# — patent US20200138855A1, “NOVEL ANTINEOPLASTIC DRUG BASED ON SPECIFICITY OF CANCER-CELL METABOLISM” (priority 2017, published 2020)
